Data set [1] deals with PC-3. Nature of the data set: Potentiation of 2 nM docetaxel-induced apoptosis in human PC3 cells assessed as Bcl2 level at 50 nM after 24 hrs by Western blot method relative to control. The data set is classed as functional.
For data set [2], the system named is PC-3. Nature of the data set: Potentiation of 2 nM docetaxel-induced cytotoxicity against human PC3 cells assessed as cell viability at 50 nM after 72 hrs by trypan blue exclusion assay relative to control. The data set is classed as functional.
Data set [3] addresses Mitogen-activated protein kinase 1 (Homo sapiens) (UniProt P28482). Nature of the data set: Potentiation of 2 nM docetaxel-induced inhibition of Erk2 phosphorylation in human PC3 cells at 50 nM after 24 hrs by Western blot method relative to control. The data set is classed as cell-based. In general terms: A western blot detects proteins with antibodies after separation by electrophoresis.

Data set [4] relates to LNCaP. Nature of the data set: Induction of apoptosis in human LNCAP cells assessed as morphological changes by propidium iodide staining based fluorescence microscopy. The data set is classed as functional, cell-based.
The subject of data set [5] is RWPE-1. Put plainly: Cytotoxicity against human RWPE1 cells at >=100 nM after 72 hrs by tryphan blue exclusion assay. The data set is classed as cell-based. The settings on record: rwpe-1, 72 h.
The nature of data set [6]: Selectivity ratio for potentiation of 2 nM docetaxel-induced cytotoxicity against human PC3 cells to potentiation of 2 nM docetaxel-induced cytotoxicity against human RWPE1 cells.
Data set [7] deals with PC-3. Put plainly: Induction of apoptosis in human PC3 cells assessed as morphological changes by propidium iodide staining based fluorescence microscopy. It is filed as functional, cell-based.
Data set [8] concerns the target Mitogen-activated protein kinase 3 (Homo sapiens) (UniProt P27361). Put plainly: Potentiation of 2 nM docetaxel-induced inhibition of Erk1 phosphorylation in human PC3 cells at 50 nM after 24 hrs by Western blot method relative to control. The data set is classed as cell-based.
The target of data set [9] is Mitogen-activated protein kinase 1 (Homo sapiens) (UniProt P28482). Put plainly: Inhibition of Erk2 phosphorylation in human PC3 cells at 50 nM after 24 hrs by Western blot method relative to control. It is filed as cell-based.
For data set [10], the system named is RWPE-1. Put plainly: Potentiation of 2 nM docetaxel-induced cytotoxicity against human RWPE1 cells assessed as decrease in cell viability at 50 nM after 72 hrs by trypan blue exclusion assay. It is filed as cell-based. The settings on record: rwpe-1, 72 h, 0.05 µM.
In data set [11] the test system is PC-3. Put plainly: Induction of apoptosis in human PC3 cells assessed as Bcl2 level at 50 nM after 24 hrs by Western blot method relative to control. The data set is classed as functional.
In data set [12] the test system is PC-3. Nature of the data set: Potentiation of 2 nM docetaxel-induced apoptosis in human PC3 cells at 50 nM after 72 hrs by propidium iodide staining based fluorescence microscopy (reference value: 1.9 +/- 0.8%). The data set is classed as functional.
For data set [13], the target named is RAC-alpha serine/threonine-protein kinase (Homo sapiens) (UniProt P31749). Nature of the data set: Inhibition of Akt phosphorylation in human PC3 cells at 50 nM after 24 hrs by Western blot method relative to control. It is filed as cell-based.
Data set [14] shares this target. Nature of the data set: Potentiation of 2 nM docetaxel-induced inhibition of Akt phosphorylation in human PC3 cells at 50 nM after 24 hrs by Western blot method relative to control. The data set is classed as cell-based.
In data set [15] the test system is LNCaP. Nature of the data set: Cytotoxicity against human LNCAP cells assessed as decrease in cell viability after 72 hrs by trypan blue exclusion assay. The data set is classed as functional, cell-based.
The test system of data set [16] is PC-3. Put plainly: Cytotoxicity against 3D culture of human PC3 cells assessed as size of tissue like structure at 50 nM administered once every alternative day for 10 days measured on post last dose by matrigel based microscopic method relative to control. It is filed as functional.
The target in data set [17] is Mitogen-activated protein kinase 3 (Homo sapiens) (UniProt P27361). Nature of the data set: Inhibition of Erk1 phosphorylation in human PC3 cells at 50 nM after 24 hrs by Western blot method relative to control. It is filed as cell-based.
The test system of data set [18] is PC-3. Put plainly: Induction of apoptosis in human PC3 cells at 50 nM after 72 hrs by propidium iodide staining based fluorescence microscopy (reference value: 1.9 +/- 0.8%). It is filed as functional.
Data set [19] in a line: Drug uptake in CD2F1 mouse plasma at 26.3 mg/kg administered for 1 min via intravenous injection measured 60 mins post dose. It is filed as ADME, organism-based.
The subject of data set [20] is PC-3. Put plainly: Cytotoxicity against human PC3 cells assessed as decrease in cell viability after 72 hrs by trypan blue exclusion assay. The data set is classed as functional, cell-based.
For data set [21], the system named is PC-3. Put plainly: Potentiation of 2 nM docetaxel-induced cytotoxicity against 3D culture of human PC3 cells assessed as size of tissue like structure at 50 nM administered once every alternative day for 10 days measured on post last dose by matrigel based microscopic method relative to control. The data set is classed as functional.
Data set [22] concerns RWPE-1. Put plainly: Potentiation of 3 nM docetaxel-induced cytotoxicity against human RWPE1 cells assessed as decrease in cell viability at 50 nM after 72 hrs by trypan blue exclusion assay. It is filed as cell-based. Particulars: rwpe-1, 72 h, 0.05 µM.
The test system of data set [23] is PC-3. Put plainly: Cytotoxicity against human PC3 cells assessed as cell viability at 50 nM after 72 hrs by trypan blue exclusion assay relative to control. Particulars: PC-3, 72 h, read-out: Activity. It is filed as functional.
Data set [24] concerns PC-3. Put plainly: Potentiation of 3 nM docetaxel-induced cytotoxicity against human PC3 cells assessed as decrease in cell viability at 50 nM after 72 hrs by trypan blue exclusion assay. The data set is classed as functional, cell-based.
In data set [25] the target is RAC-alpha serine/threonine-protein kinase (Homo sapiens) (UniProt P31749). Nature of the data set: Inhibition of Akt phosphorylation in human PC3 cells at 2 nM after 24 hrs by Western blot method relative to control. The data set is classed as cell-based.
The target of data set [26] is Mitogen-activated protein kinase 1 (Homo sapiens) (UniProt P28482). Nature of the data set: Inhibition of Erk2 phosphorylation in human PC3 cells at 2 nM after 24 hrs by Western blot method relative to control. It is filed as cell-based.
Data set [27] concerns PC-3. Put plainly: Induction of apoptosis in human PC3 cells at 2 nM after 72 hrs by propidium iodide staining based fluorescence microscopy (reference value: 1.9 +/- 0.8%). It is filed as functional.
Data set [28] deals with RWPE-1. Nature of the data set: Cytotoxicity against human RWPE1 cells at 5 to 10 nM after 72 hrs by trypan blue exclusion assay. Particulars: rwpe-1, 72 h, 0.01 µM. It is filed as cell-based.
For data set [29], the system named is PC-3. Nature of the data set: Cytotoxicity against human PC3 cells assessed as cell viability at 2 nM after 72 hrs by trypan blue exclusion assay relative to control. The data set is classed as functional. The settings on record: PC-3, 72 h, read-out: Activity.
Data set [30] relates to PC-3. Nature of the data set: Cytotoxicity against human PC3 cells. The data set is classed as functional, cell-based.
The next data set has as its system Plasma. Nature of the data set: Drug uptake in cancer patient plasma at 35 mg/m2, iv administered once every week via infusion measured on day 8 by HPLC-TMS. It is filed as ADME, organism-based. Particulars: human, in vivo.
Data set [31] is described as follows: Drug uptake in patient plasma at 20 mg/m2, iv administered for 1 hr as infusion measured 72 hrs post dose. It is filed as ADME, organism-based. The settings on record: human.
For data set [32], the system named is PC-3. Nature of the data set: Induction of apoptosis in human PC3 cells assessed as Bcl2 level at 2 nM after 24 hrs by Western blot method relative to control. It is filed as functional.
Data set [33] has as its system PC-3. Put plainly: Cytotoxicity against 3D cultures of human PC3 cells assessed as size of tissue-like structure at 2 nM administered once every alternative day for 10 days measured on post last dose by matrigel based microscopic method relative to control. It is filed as functional.
Data set [34] deals with Mitogen-activated protein kinase 3 (Homo sapiens) (UniProt P27361). Put plainly: Inhibition of Erk1 phosphorylation in human PC3 cells at 2 nM after 24 hrs by Western blot method relative to control. It is filed as cell-based.

What is called IC50 is the concentration that gives 50% inhibition.

Activity calls are given as the source filed them. The rule behind the calls is not given here.

Sequence of RAC-alpha serine/threonine-protein kinase (Homo sapiens) (P31749 whole entry): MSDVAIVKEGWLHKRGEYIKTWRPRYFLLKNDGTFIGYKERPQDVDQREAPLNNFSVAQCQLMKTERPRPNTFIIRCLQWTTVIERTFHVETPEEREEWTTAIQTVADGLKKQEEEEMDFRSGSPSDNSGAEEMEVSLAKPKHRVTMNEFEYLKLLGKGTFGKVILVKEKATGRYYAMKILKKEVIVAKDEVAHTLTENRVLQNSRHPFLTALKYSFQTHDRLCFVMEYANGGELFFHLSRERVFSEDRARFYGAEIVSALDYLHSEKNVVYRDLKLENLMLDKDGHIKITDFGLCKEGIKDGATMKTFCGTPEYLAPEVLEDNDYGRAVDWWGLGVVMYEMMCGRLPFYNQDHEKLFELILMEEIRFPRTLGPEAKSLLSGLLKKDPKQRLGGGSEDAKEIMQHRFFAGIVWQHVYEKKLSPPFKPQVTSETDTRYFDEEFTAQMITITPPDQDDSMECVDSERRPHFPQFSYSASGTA
Sequence of Mitogen-activated protein kinase 1 (Homo sapiens) (P28482 whole entry): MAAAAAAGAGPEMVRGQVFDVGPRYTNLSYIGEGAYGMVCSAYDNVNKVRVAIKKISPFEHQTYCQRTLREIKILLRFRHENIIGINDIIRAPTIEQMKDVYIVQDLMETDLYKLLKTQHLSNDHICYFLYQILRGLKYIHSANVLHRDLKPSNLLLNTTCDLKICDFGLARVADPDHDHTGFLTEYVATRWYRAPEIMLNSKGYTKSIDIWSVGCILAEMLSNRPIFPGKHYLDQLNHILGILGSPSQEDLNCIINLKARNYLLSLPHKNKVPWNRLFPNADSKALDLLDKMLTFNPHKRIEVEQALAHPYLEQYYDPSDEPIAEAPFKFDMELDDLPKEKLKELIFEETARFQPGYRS
Sequence of Mitogen-activated protein kinase 3 (Homo sapiens) (P27361 whole entry): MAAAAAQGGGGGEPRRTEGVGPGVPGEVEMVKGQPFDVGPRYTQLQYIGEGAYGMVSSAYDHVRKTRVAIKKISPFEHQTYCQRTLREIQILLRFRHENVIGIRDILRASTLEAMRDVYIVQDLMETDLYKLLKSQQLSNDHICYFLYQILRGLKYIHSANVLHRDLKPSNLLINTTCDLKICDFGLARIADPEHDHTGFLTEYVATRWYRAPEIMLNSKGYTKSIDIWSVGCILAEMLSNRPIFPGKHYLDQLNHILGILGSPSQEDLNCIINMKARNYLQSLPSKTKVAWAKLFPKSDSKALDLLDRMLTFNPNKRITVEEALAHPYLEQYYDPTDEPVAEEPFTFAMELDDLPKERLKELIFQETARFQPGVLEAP

Take `C[C@H]1CCC/C=C/[C@@H]2C[C@H](O)C[C@H]2[C@H](O)/C=C/C(=O)O1` [BREFELDIN A]: the “fold change (FC)” value in the data set with PC-3 [1] is 0.32; in [3], 0.96; in [8], 0.93; in [9], 0.97; with PC-3 [11], 0.99; in [13], 0.99. For the same compound, the fold change (FC) turned out to be 0.97 in data set [14] and 0.99 in [17]. Besides, the Activity in the data set on PC-3 [2] is 48.4%; in the data set on LNCaP [4], “Dose-dependent effect”; in the data set on RWPE-1 [5], “Toxic”; with PC-3 [7] it was “Dose-dependent effect”; with RWPE-1 [10], “Toxic”; in the data set with PC-3 [12] it was 51.2%. The Activity entry is “Dose-dependent effect” with LNCaP [15]; 79.3% in the data set on PC-3 [16]; 18% in the data set on PC-3 [18]; “Dose-dependent effect” in the data set with PC-3 [20]; 38.8% with PC-3 [21]; “Toxic” with RWPE-1 [22]. For the same compound, the Selectivity ratio in data set [6] amounted to 4. Also, the concentration at 1 h in data set [19] is 700 nM. For the same compound, the viability at 0.05 µM in the data set on PC-3 [23] is 83.4%. The result in the data set on PC-3 [24] was Active.
As for `CC(=O)O[C@@]12CO[C@@H]1C[C@H](O)[C@@]1(C)C(=O)[C@H](O)C3=C(C)[C@@H](OC(=O)[C@H](O)[C@@H](NC(=O)OC(C)(C)C)c4ccccc4)C[C@@](O)([C@@H](OC(=O)c4ccccc4)[C@H]21)C3(C)C` [DOCETAXEL ANHYDROUS], the fold change (FC) stood at 1.01 in [25], 0.96 in data set [26], 0.71 in the data set with PC-3 [32] and 0.95 in data set [34]. Moreover, the Activity entry in the data set with LNCaP [4] is “Dose-dependent effect”; with PC-3 [27] it was 14.5%; with PC-3 [7] it was “Dose-dependent effect”; in the data set with RWPE-1 [28], “Toxic”; in the data set with RWPE-1 [10], “Toxic”; in the data set on PC-3 [33], 83.1%. In addition, the Activity result in the data set with LNCaP [15] and in the data set on PC-3 [20] was “Dose-dependent effect” in each case. In the data set on PC-3 [29], the viability at 0.002 µM was 86.7%. Also, the IC50 in the data set on PC-3 [30] was 5 to 24 nM; in the data set on PC-3 [20] (PC-3, 72 h) it was 8 nM. The concentration in the data set on Plasma worked out at 1.79 nM. Also, the concentration at 72 h in data set [31] amounted to 2.8 nM. Moreover, in the data set with PC-3 [24], the result was Active.

For the origin of these results see ChEMBL document CHEMBL4024735, “Brefeldin A enhances docetaxel-induced growth inhibition and apoptosis in prostate cancer cells in monolayer and 3D cultures” (Bioorg Med Chem Lett, 2017).
